# Read-outs that look alike come from different tables or passages of the source.
# Tests used:
# mouse TRPV1 (mV1) = mouse TRPV1 (mV1) (Mus musculus, UniProt Q704Y3); assay: Agonist activation, patch clamp, HEK293T; assay type: cell-based; settings: read-out: EC50_Capsaicin
# Tree shrew TRPV1 = Tree shrew TRPV1 (Tupaia chinensis, UniProt L8Y7X1); assay: Agonist activation, patch clamp, HEK293T; assay type: cell-based, Tupaia belangeri chinensis; settings: read-out: EC50_Capsaicin
# pV1_mN chimera = pV1_mN chimera (Ornithorhynchus anatinus, UniProt F7A7B4); assay: Agonist activation, patch clamp, HEK293T; assay type: cell-based, platypus / mouse; settings: read-out: EC50_Capsaicin
# mV1 CΔ30 (Glu747-Phe776) = mV1 CΔ30 (Glu747-Phe776) (Mus musculus, UniProt Q704Y3, DEL747-776); assay: Agonist activation, patch clamp, HEK293T; assay type: cell-based; settings: read-out: EC50_Capsaicin
# mV1 CΔ28 (Ala800-Ala827) = mV1 CΔ28 (Ala800-Ala827) (Mus musculus, UniProt Q704Y3, DEL800-827); assay: Agonist activation, patch clamp, HEK293T; assay type: cell-based; settings: read-out: EC50_Capsaicin
# mV1 S116A = mV1 S116A (Mus musculus, UniProt Q704Y3, S117A); assay: Agonist activation, patch clamp, HEK293T; assay type: cell-based; settings: read-out: EC50_Capsaicin
# mV1 T371G = mV1 T371G (Mus musculus, UniProt Q704Y3, T371G); assay: Agonist activation, patch clamp, HEK293T; assay type: cell-based; settings: read-out: EC50_Capsaicin
# mV1 F830A = mV1 F830A (Mus musculus, UniProt Q704Y3, F830A); assay: Agonist activation, patch clamp, HEK293T; assay type: cell-based; settings: read-out: EC50_Capsaicin
# mV1 K831A = mV1 K831A (Mus musculus, UniProt Q704Y3, K831A); assay: Agonist activation, patch clamp, HEK293T; assay type: cell-based; settings: read-out: EC50_Capsaicin
# mV1 D832A = mV1 D832A (Mus musculus, UniProt Q704Y3, D832A); assay: Agonist activation, patch clamp, HEK293T; assay type: cell-based; settings: read-out: EC50_Capsaicin
# mV1 S833A = mV1 S833A (Mus musculus, UniProt Q704Y3, S833A); assay: Agonist activation, patch clamp, HEK293T; assay type: cell-based; settings: read-out: EC50_Capsaicin
# mV1 M834A = mV1 M834A (Mus musculus, UniProt Q704Y3, M834A); assay: Agonist activation, patch clamp, HEK293T; assay type: cell-based; settings: read-out: EC50_Capsaicin
# mV1 P836A = mV1 P836A (Mus musculus, UniProt Q704Y3, P836A); assay: Agonist activation, patch clamp, HEK293T; assay type: cell-based; settings: read-out: EC50_Capsaicin
# mV1 K839A = mV1 K839A (Mus musculus, UniProt Q704Y3, K839A); assay: Agonist activation, patch clamp, HEK293T; assay type: cell-based; settings: read-out: EC50_Capsaicin
# mV1_241 (ANAP) = mV1_241 (ANAP) (Mus musculus, UniProt Q704Y3, K241X); assay: Agonist activation of ANAP-incorporated channel, patch clamp; assay type: cell-based
# mV1_630 (ANAP) = mV1_630 (ANAP) (Mus musculus, UniProt Q704Y3, S630X); assay: as above; assay type: cell-based
# mV1_654 (ANAP) = mV1_654 (ANAP) (Mus musculus, UniProt Q704Y3, Y654X); assay: as above; assay type: cell-based
# mV1_685 (ANAP) = mV1_685 (ANAP) (Mus musculus, UniProt Q704Y3, E685X); assay: as above; assay type: cell-based
# pV1_643 (ANAP) = pV1_643 (ANAP) (Ornithorhynchus anatinus, UniProt F7A7B4, S634X)
# rTRPV1 = system: rTRPV1; design: method as in Sanchez-Moreno et al; settings: 4 μM capsaicin, ref Sanchez-Moreno et al; cited from earlier work
# Sequence of mV1 S116A (Q704Y3 whole entry S117A): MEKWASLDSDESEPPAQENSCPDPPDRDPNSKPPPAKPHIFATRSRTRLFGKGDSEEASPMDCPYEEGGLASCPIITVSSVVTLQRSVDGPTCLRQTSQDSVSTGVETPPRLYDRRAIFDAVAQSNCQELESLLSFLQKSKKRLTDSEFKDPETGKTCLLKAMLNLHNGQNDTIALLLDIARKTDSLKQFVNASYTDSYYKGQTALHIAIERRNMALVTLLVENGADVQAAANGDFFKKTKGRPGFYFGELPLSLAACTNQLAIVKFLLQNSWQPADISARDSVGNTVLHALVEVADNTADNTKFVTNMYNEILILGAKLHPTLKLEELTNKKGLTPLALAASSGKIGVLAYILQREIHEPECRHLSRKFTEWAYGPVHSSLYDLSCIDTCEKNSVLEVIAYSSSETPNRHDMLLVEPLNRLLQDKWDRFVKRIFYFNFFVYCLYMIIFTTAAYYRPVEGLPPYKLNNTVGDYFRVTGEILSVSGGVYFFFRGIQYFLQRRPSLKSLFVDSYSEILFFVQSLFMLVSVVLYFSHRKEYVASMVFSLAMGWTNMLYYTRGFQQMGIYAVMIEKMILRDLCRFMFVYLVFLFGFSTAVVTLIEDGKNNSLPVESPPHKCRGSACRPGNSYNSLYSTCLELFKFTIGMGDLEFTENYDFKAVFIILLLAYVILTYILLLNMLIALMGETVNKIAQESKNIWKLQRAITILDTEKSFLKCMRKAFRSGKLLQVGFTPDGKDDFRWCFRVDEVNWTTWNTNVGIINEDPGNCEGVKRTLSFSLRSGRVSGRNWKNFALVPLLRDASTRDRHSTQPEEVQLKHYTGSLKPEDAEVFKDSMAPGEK
# Sequence of mV1 CΔ30 (Glu747-Phe776) (Q704Y3 with tags, fused parts or gaps DEL747-776): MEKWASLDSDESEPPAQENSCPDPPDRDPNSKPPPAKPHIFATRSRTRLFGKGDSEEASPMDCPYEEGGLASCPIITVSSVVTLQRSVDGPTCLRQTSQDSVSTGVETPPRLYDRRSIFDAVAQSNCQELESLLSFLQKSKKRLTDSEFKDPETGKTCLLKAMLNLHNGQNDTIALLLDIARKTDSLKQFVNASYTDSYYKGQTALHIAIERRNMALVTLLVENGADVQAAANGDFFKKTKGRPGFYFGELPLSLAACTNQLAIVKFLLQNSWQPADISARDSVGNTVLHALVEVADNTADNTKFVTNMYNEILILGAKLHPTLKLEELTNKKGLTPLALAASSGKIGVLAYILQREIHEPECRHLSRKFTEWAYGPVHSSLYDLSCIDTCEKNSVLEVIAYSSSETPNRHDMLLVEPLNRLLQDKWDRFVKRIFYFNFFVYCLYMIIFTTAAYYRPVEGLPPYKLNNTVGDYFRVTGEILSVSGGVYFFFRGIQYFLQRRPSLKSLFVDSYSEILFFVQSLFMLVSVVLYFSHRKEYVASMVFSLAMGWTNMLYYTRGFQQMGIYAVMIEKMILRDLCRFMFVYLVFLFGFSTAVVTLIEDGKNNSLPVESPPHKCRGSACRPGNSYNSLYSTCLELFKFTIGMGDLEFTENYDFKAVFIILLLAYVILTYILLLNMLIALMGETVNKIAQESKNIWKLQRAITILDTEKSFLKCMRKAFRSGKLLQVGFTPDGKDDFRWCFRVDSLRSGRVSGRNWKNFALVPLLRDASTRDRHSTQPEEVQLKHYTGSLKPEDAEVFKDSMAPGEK
# Sequence of pV1_mN chimera (F7A7B4 436-842, stated change not applied): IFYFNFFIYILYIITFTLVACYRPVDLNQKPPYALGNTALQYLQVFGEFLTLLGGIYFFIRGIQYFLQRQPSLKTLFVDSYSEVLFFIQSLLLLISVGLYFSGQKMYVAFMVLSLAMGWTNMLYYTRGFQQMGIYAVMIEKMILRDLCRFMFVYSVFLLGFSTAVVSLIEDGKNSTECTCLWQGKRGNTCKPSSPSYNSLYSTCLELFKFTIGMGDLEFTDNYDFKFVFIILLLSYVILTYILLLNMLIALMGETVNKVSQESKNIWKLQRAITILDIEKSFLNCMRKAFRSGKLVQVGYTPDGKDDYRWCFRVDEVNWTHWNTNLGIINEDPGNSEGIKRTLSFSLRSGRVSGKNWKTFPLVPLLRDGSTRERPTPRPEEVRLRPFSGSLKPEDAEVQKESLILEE
# Sequence of pV1_mN chimera (Q704Y3 1-433 partner): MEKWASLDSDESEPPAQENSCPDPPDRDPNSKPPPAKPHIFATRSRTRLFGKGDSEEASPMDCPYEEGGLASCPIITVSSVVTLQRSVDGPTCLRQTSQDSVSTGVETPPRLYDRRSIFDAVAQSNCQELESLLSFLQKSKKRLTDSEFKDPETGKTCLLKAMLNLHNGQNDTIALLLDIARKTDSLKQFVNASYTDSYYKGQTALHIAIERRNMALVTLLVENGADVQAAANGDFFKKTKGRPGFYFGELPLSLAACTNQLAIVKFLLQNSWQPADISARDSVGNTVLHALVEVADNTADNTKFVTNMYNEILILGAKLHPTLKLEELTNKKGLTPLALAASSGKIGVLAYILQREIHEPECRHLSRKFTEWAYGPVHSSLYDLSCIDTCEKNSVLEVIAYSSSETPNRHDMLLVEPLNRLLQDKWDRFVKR
# Sequence of mV1 M834A (Q704Y3 whole entry M834A): as the sequence (Q704Y3 whole entry S117A) above, with A117S, M834A counted along it
# Sequence of mouse TRPV1 (mV1) (Q704Y3 whole entry): as the sequence (Q704Y3 whole entry S117A) above, with A117S counted along it
# Sequence of mV1 P836A (Q704Y3 whole entry P836A): as the sequence (Q704Y3 whole entry S117A) above, with A117S, P836A counted along it
# Sequence of mV1 D832A (Q704Y3 whole entry D832A): as the sequence (Q704Y3 whole entry S117A) above, with A117S, D832A counted along it
# Sequence of mV1 K839A (Q704Y3 whole entry K839A): as the sequence (Q704Y3 whole entry S117A) above, with A117S, K839A counted along it
# Sequence of mV1 CΔ28 (Ala800-Ala827) (Q704Y3 with tags, fused parts or gaps DEL800-827): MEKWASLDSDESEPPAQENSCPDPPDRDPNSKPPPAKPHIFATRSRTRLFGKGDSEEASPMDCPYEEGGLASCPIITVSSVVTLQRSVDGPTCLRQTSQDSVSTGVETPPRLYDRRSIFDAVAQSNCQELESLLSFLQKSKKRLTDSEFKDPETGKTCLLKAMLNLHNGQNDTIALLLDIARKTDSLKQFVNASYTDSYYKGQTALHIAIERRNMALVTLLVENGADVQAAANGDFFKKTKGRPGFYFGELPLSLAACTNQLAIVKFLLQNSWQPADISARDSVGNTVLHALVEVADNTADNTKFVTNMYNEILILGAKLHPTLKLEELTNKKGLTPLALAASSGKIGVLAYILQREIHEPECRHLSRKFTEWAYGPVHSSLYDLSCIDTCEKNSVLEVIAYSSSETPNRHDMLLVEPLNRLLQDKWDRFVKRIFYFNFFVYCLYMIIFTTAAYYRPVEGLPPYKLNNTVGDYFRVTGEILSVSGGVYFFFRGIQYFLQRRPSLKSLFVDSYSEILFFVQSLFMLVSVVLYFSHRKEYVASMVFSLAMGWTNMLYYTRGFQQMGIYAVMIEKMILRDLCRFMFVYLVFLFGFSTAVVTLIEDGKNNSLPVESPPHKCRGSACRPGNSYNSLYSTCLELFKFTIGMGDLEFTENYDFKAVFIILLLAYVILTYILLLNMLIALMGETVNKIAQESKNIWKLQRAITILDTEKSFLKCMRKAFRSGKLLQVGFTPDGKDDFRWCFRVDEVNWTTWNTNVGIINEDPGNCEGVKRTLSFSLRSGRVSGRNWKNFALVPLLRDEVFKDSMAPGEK
# Sequence of mV1 K831A (Q704Y3 whole entry K831A): as the sequence (Q704Y3 whole entry S117A) above, with A117S, K831A counted along it
# Sequence of Tree shrew TRPV1 (L8Y7X1 1-828): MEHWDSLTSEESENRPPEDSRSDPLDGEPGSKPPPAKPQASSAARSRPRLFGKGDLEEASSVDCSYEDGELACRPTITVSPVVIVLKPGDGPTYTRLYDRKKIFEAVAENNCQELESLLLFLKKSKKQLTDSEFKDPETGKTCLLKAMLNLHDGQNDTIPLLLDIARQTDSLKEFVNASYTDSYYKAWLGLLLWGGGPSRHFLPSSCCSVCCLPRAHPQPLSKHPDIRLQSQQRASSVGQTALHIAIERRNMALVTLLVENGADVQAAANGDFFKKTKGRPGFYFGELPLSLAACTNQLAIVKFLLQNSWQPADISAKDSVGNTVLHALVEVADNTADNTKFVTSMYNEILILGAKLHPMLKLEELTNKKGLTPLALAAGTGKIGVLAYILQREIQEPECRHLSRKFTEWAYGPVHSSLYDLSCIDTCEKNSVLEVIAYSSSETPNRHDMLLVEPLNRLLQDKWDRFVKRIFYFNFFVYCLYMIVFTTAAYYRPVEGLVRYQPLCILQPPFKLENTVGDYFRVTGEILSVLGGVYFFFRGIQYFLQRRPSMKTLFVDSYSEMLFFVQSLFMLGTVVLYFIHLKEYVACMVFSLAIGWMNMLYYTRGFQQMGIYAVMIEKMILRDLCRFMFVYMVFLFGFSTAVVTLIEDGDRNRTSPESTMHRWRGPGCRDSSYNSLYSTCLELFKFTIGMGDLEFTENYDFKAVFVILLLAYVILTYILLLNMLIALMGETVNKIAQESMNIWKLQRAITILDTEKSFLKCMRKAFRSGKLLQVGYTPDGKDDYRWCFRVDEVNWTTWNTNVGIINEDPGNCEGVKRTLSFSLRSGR
# Sequence of mV1 S833A (Q704Y3 whole entry S833A): as the sequence (Q704Y3 whole entry S117A) above, with A117S, S833A counted along it
# Sequence of mV1 T371G (Q704Y3 whole entry T371G): as the sequence (Q704Y3 whole entry S117A) above, with A117S, T371G counted along it
# Sequence of mV1 F830A (Q704Y3 whole entry F830A): as the sequence (Q704Y3 whole entry S117A) above, with A117S, F830A counted along it
smiles,measurement,setting,value
"COc1cc(CNC(=O)CCCC/C=C/C(C)C)ccc1O [Capsaicin, capsaicin]",EC50,"mouse TRPV1 (mV1); Supp Table 1 data, replicate 1",0.249 µM
same,EC50,"mouse TRPV1 (mV1); Supp Table 1 data, replicate 2",0.299 µM
same,EC50,"mouse TRPV1 (mV1); Supp Table 2 data, replicate 1",0.277 µM
same,EC50,"mouse TRPV1 (mV1); Supp Table 2 data, replicate 2",0.302 µM
same,EC50,"mouse TRPV1 (mV1); Supp Table 3 data, replicate 1",0.276 µM
same,EC50,"mouse TRPV1 (mV1); Supp Table 3 data, replicate 2",0.306 µM
same,EC50,"mouse TRPV1 (mV1); Supp Table 3 data, replicate 3",0.315 µM
same,EC50,"mouse TRPV1 (mV1); Supp Table 4 data, replicate 1",0.297 µM
same,EC50,"mouse TRPV1 (mV1); Supp Table 4 data, replicate 2",0.279 µM
same,EC50,"mouse TRPV1 (mV1); Supp Table 4 data, replicate 3",0.321 µM
same,EC50,"Tree shrew TRPV1; mean ± s.e.m., n = 3",5.26 µM
same,EC50,Tree shrew TRPV1; replicate 1,4.932 µM
same,EC50,Tree shrew TRPV1; replicate 2,5.507 µM
same,EC50,Tree shrew TRPV1; replicate 3,5.341 µM
same,EC50,"pV1_mN chimera; mean ± s.e.m., n = 6",0.313 µM
same,EC50,pV1_mN chimera; replicate 2,0.294 µM
same,EC50,pV1_mN chimera; replicate 3,0.36 µM
same,EC50,pV1_mN chimera; replicate 5,0.279 µM
same,EC50,"mV1 CΔ30 (Glu747-Phe776); mean ± s.e.m., n = 5",0.372 µM
same,EC50,mV1 CΔ30 (Glu747-Phe776); replicate 1,0.252 µM
same,EC50,mV1 CΔ30 (Glu747-Phe776); replicate 2,0.26 µM
same,EC50,mV1 CΔ30 (Glu747-Phe776); replicate 3,0.424 µM
same,EC50,mV1 CΔ30 (Glu747-Phe776); replicate 4,0.463 µM
same,EC50,mV1 CΔ30 (Glu747-Phe776); replicate 5,0.461 µM
same,EC50,"mV1 CΔ28 (Ala800-Ala827); mean ± s.e.m., n = 3",0.343 µM
same,EC50,mV1 CΔ28 (Ala800-Ala827); replicate 1,0.256 µM
same,EC50,mV1 CΔ28 (Ala800-Ala827); replicate 2,0.365 µM
same,EC50,mV1 CΔ28 (Ala800-Ala827); replicate 3,0.408 µM
same,EC50,"mV1 S116A; mean ± s.e.m., n = 3",0.186 µM
same,EC50,mV1 S116A; replicate 1,0.191 µM
same,EC50,mV1 S116A; replicate 2,0.161 µM
same,EC50,mV1 S116A; replicate 3,0.206 µM
same,EC50,"mV1 T371G; mean ± s.e.m., n = 3",0.322 µM
same,EC50,mV1 T371G; replicate 1,0.349 µM
same,EC50,mV1 T371G; replicate 2,0.332 µM
same,EC50,"mV1 F830A; mean ± s.e.m., n = 3",0.338 µM
same,EC50,mV1 F830A; replicate 1,0.286 µM
same,EC50,mV1 F830A; replicate 2,0.398 µM
same,EC50,mV1 F830A; replicate 3,0.33 µM
same,EC50,"mV1 K831A; mean ± s.e.m., n = 3",0.354 µM
same,EC50,mV1 K831A; replicate 1,0.417 µM
same,EC50,mV1 K831A; replicate 2,0.355 µM
same,EC50,mV1 K831A; replicate 3,0.29 µM
same,EC50,"mV1 D832A; mean ± s.e.m., n = 3",0.361 µM
same,EC50,mV1 D832A; replicate 1,0.372 µM
same,EC50,mV1 D832A; replicate 2,0.282 µM
same,EC50,mV1 D832A; replicate 3,0.429 µM
same,EC50,"mV1 S833A; mean ± s.e.m., n = 3",0.344 µM
same,EC50,mV1 S833A; replicate 1,0.361 µM
same,EC50,mV1 S833A; replicate 2,0.282 µM
same,EC50,mV1 S833A; replicate 3,0.389 µM
same,EC50,"mV1 M834A; mean ± s.e.m., n = 3",0.329 ± 0.023 µM
same,EC50,mV1 M834A; replicate 1,0.28 µM
same,EC50,mV1 M834A; replicate 2,0.378 µM
same,EC50,mV1 M834A; replicate 3,0.329 µM
same,EC50,"mV1 P836A; mean ± s.e.m., n = 3",0.315 µM
same,EC50,mV1 P836A; replicate 1,0.262 µM
same,EC50,mV1 P836A; replicate 2,0.364 µM
same,EC50,"mV1 K839A; mean ± s.e.m., n = 3",0.293 µM
same,EC50,mV1 K839A; replicate 1,0.268 µM
same,EC50,mV1 K839A; replicate 2,0.292 µM
same,EC50,mV1_241 (ANAP),0.29 µM
same,EC50_Capsaicin,mV1_241 (ANAP); replicate 1,0.256 µM
same,EC50_Capsaicin,mV1_241 (ANAP); replicate 2,0.283 µM
same,EC50_Capsaicin,mV1_241 (ANAP); replicate 3,0.296 µM
same,EC50_Capsaicin,mV1_241 (ANAP); replicate 4,0.299 µM
same,EC50_Capsaicin,mV1_241 (ANAP); replicate 5,0.316 µM
same,EC50,mV1_630 (ANAP),0.299 µM
same,EC50_Capsaicin,mV1_630 (ANAP); replicate 1,0.325 µM
same,EC50_Capsaicin,mV1_630 (ANAP); replicate 2,0.289 µM
same,EC50_Capsaicin,mV1_630 (ANAP); replicate 3,0.31 µM
same,EC50_Capsaicin,mV1_630 (ANAP); replicate 4,0.272 µM
same,EC50,mV1_654 (ANAP),0.304 µM
same,EC50_Capsaicin,mV1_654 (ANAP); replicate 1,0.324 µM
same,EC50_Capsaicin,mV1_654 (ANAP); replicate 2,0.298 µM
same,EC50_Capsaicin,mV1_654 (ANAP); replicate 3,0.284 µM
same,EC50_Capsaicin,mV1_654 (ANAP); replicate 4,0.31 µM
same,EC50_Capsaicin,mV1_654 (ANAP); replicate 5,0.267 µM
same,EC50_Capsaicin,mV1_654 (ANAP); replicate 6,0.341 µM
same,EC50,mV1_685 (ANAP),0.295 µM
same,EC50_Capsaicin,mV1_685 (ANAP); replicate 1,0.321 µM
same,EC50_Capsaicin,mV1_685 (ANAP); replicate 3,0.335 µM
same,EC50_Capsaicin,mV1_685 (ANAP); replicate 4,0.287 µM
same,EC50_Capsaicin,mV1_685 (ANAP); replicate 5,0.299 µM
same,EC50_Capsaicin,mV1_685 (ANAP); replicate 6,0.268 µM
same,EC50_Capsaicin,mV1_685 (ANAP); replicate 7,0.335 µM
same,EC50_Capsaicin,mV1_685 (ANAP); replicate 8,0.254 µM
same,EC50_Capsaicin,pV1_643 (ANAP); replicate 1,0.323 µM
same,EC50_Capsaicin,pV1_643 (ANAP); replicate 2,0.276 µM
same,EC50_Capsaicin,pV1_643 (ANAP); replicate 3,0.29 µM
same,EC50_Capsaicin,pV1_643 (ANAP); replicate 4,0.327 µM
same,EC50_Capsaicin,pV1_643 (ANAP); replicate 6,0.351 µM
same,capsaicin sensitivity of heat-desensitized rTRPV1,rTRPV1,insensitive

# Reference: paper PMC6513986, “Molecular basis for heat desensitization of TRPV1 ion channels” (Nature Communications, 2019)
